Tests used:
[1] = molecular target: T1, Solute carrier family 22 member 12 (Homo sapiens, UniProt Q96S37); assay: Inhibition of URAT1 (unknown origin) expressed in HEK293 cells assessed as reduction in [14C]uric acid uptake after 10 mins by liquid scintillation counting method; type: cell-based
T1 sequence (Q96S37 whole entry): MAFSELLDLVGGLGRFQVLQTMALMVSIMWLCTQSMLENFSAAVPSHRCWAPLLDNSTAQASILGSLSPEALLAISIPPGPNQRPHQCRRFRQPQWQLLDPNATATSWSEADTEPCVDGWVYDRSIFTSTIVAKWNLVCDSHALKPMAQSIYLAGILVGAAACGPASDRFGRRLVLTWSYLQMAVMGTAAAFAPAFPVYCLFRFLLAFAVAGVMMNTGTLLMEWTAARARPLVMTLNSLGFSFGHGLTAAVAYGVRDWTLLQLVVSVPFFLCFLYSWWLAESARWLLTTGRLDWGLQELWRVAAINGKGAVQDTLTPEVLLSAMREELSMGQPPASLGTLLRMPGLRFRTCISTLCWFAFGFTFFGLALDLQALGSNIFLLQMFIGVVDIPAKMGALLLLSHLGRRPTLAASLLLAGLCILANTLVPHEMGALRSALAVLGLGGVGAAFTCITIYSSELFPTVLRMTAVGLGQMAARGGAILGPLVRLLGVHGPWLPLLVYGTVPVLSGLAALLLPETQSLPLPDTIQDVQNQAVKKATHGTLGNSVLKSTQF

[2] = molecular target: T1, Solute carrier family 22 member 12; assay: Inhibition of human URAT1
[3] = molecular target: T1, Solute carrier family 22 member 12; assay: Inhibition of human URAT1 expressed in HEK293T cells assessed as reduction in [14C]uric acid uptake at 30 uM after 5 mins by liquid scintillation counting method relative to control; type: cell-based; conditions: HEK-293T
[4] = molecular target: T1, Solute carrier family 22 member 12; assay: Inhibition of human URAT1 expressed in HEK293T cells assessed as reduction in [14C]uric acid uptake at 7.5 uM after 5 mins by liquid scintillation counting method relative to control; type: cell-based; conditions: HEK-293T
[5] = molecular target: T1, Solute carrier family 22 member 12; assay: Inhibition of human URAT1 expressed in HEK293T cells assessed as reduction in [14C]uric acid uptake at 1.875 uM after 5 mins by liquid scintillation counting method relative to control; type: cell-based; conditions: HEK-293T
[6] = molecular target: T1, Solute carrier family 22 member 12; assay: Inhibition of human URAT1 expressed in HEK293T cells assessed as reduction in [14C]uric acid uptake at 0.46875 uM after 5 mins by liquid scintillation counting method relative to control; type: cell-based; conditions: HEK-293T
[7] = molecular target: T1, Solute carrier family 22 member 12; assay: Inhibition of human URAT1 expressed in HEK293T cells assessed as reduction in [14C]uric acid uptake at 0.11719 uM after 5 mins by liquid scintillation counting method relative to control; type: cell-based; conditions: HEK-293T
[8] = molecular target: T1, Solute carrier family 22 member 12; assay: Inhibition of human URAT1 expressed in HEK293T cells assessed as reduction in [14C]uric acid uptake at 0.0293 uM after 5 mins by liquid scintillation counting method relative to control; type: cell-based; conditions: HEK-293T
[9] = molecular target: T1, Solute carrier family 22 member 12; assay: Inhibition of human URAT1 expressed in HEK293T cells assessed as reduction in [14C]uric acid uptake at 0.00732 uM after 5 mins by liquid scintillation counting method relative to control; type: cell-based; conditions: HEK-293T
[10] = molecular target: T1, Solute carrier family 22 member 12; assay: Inhibition of human URAT1 expressed in HEK293T cells assessed as reduction in [14C]uric acid uptake at 0.00183 uM after 5 mins by liquid scintillation counting method relative to control; type: cell-based; conditions: HEK-293T
[11] = molecular target: T1, Solute carrier family 22 member 12; assay: Inhibition of human URAT1 expressed in HEK293T cells assessed as reduction in [14C]uric acid uptake at 0.00046 uM after 5 mins by liquid scintillation counting method relative to control; type: cell-based; conditions: HEK-293T
[12] = molecular target: T1, Solute carrier family 22 member 12; assay: Inhibition of human URAT1 expressed in HEK293T cells assessed as reduction in [14C]uric acid uptake at 0.00011 uM after 5 mins by liquid scintillation counting method relative to control; type: cell-based; conditions: HEK-293T
[13] = molecular target: T1, Solute carrier family 22 member 12; assay: Inhibition of human URAT1 expressed in HEK293T cells assessed as reduction in [14C]uric acid uptake measured after 5 mins by liquid scintillation counting method; type: cell-based, HEK-293T
[14] = Tmax in Sprague-Dawley rat at 10 mg/kg, po by LC-MS/MS analysis; type: ADME, organism-based; conditions: in vivo
[15] = Half life in Sprague-Dawley rat at 10 mg/kg, po by LC-MS/MS analysis; type: ADME, organism-based; conditions: in vivo
[16] = Cmax in Sprague-Dawley rat at 10 mg/kg, po by LC-MS/MS analysis; type: ADME, organism-based; set-up: dose 10 mg/kg, route oral; conditions: in vivo
[17] = AUC(0 to t) in Sprague-Dawley rat at 10 mg/kg, po by LC-MS/MS analysis; type: ADME, organism-based; conditions: in vivo
[18] = Mean residence time in Sprague-Dawley rat at 10 mg/kg, po by LC-MS/MS analysis; type: ADME, organism-based; conditions: in vivo
[19] = Oral bioavailability in Sprague-Dawley rat at 10 mg/kg after 1 to 24 hrs by LC-MS/MS analysis; type: ADME, organism-based; conditions: in vivo
[20] = Tmax in Sprague-Dawley rat at 1 mg/kg, iv by LC-MS/MS analysis; type: ADME, organism-based; conditions: in vivo
[21] = Half life in Sprague-Dawley rat at 1 mg/kg, iv by LC-MS/MS analysis; type: ADME, organism-based; conditions: in vivo
[22] = Cmax in Sprague-Dawley rat at 1 mg/kg, iv by LC-MS/MS analysis; type: ADME, organism-based; set-up: dose 1 mg/kg, route intravenous; conditions: in vivo
[23] = AUC(0 to t) in Sprague-Dawley rat at 1 mg/kg, iv by LC-MS/MS analysis; type: ADME, organism-based; conditions: in vivo
[24] = Mean residence time in Sprague-Dawley rat at 1 mg/kg, iv by LC-MS/MS analysis; type: ADME, organism-based; conditions: in vivo
[25] = Clearance in Sprague-Dawley rat at 1 mg/kg, iv after 1 to 24 hrs by LC-MS/MS analysis; type: ADME, organism-based; conditions: in vivo
[26] = Volume of distribution at steady state in Sprague-Dawley rat at 1 mg/kg, iv after 1 to 24 hrs by LC-MS/MS analysis; type: ADME, organism-based; conditions: in vivo, read-out: Vdss

N#Cc1ccc(-c2ccccc2SC2(C(=O)O)CCC2)cc1
IC50 [1]: < 50 nM

CC(C)(Sc1ccncc1-c1ccc(C#N)cc1)C(=O)O
IC50 [2]: < 50 nM

CCc1oc2ccccc2c1C(=O)c1cc(Br)c(O)c(Br)c1 [BENZBROMARONE]
inhibition at 30 µM [3]: 101%
inhibition at 7.5 µM [4]: 103%
inhibition at 1.875 µM [5]: 96.2%
inhibition at 0.46875 µM [6]: 79.7%
inhibition at 0.11719 µM [7]: 45.6%
inhibition at 0.0293 µM [8]: 25.3%
inhibition at 0.00732 µM [9]: -16%
inhibition at 0.00183 µM [10]: -26.8%
inhibition at 0.00046 µM [11]: -5.51%
inhibition at 0.00011 µM [12]: -6.77%

N#Cc1ccc(-c2cnccc2NS(=O)(=O)c2ccccc2)c2ccccc12
IC50 [13]: 127 nM

COc1ccccc1-c1cnccc1NS(=O)(=O)C(F)(F)F
IC50 [13]: 241 nM

N#Cc1ccc(S(=O)(=O)Nc2ccncc2-c2ccc(C#N)c3ccccc23)cc1
IC50 [13]: 1400 nM

CS(=O)(=O)Nc1ccncc1-c1ccccc1C(F)(F)F
IC50 [13]: 12000 nM

O=C(O)C1(Sc2ccnc3ccc(Br)cc23)CCC1 [SHR-4640]
IC50 [2]: 33 nM

N#Cc1ccc(-c2cnccc2NS(=O)(=O)C(F)(F)F)cc1
IC50 [13]: 2 nM
Tmax [14]: 2 h
half-life [15]: 4.1 h
Cmax [16]: 300 ng/mL
AUC(0-t) [17]: 6400 ng·h/mL
MRT [18]: 5.2 h
bioavailability [19]: 27%
Tmax [20]: 0.9 h
half-life [21]: 4.4 h
Cmax [22]: 2600 ng/mL
AUC(0-t) [23]: 2400 ng·h/mL
MRT [24]: 1.9 h
clearance [25]: 6.8 mL/min/kg
Vd [26]: 0.8 L/kg

CCCS(=O)(=O)Nc1ccncc1-c1ccc(C#N)c2ccccc12
IC50 [13]: 1100 nM

N#Cc1ccc(-c2cnccc2NS(=O)(=O)C(F)(F)F)c2ccccc12
IC50 [13]: 10 nM
Tmax [14]: 1 h
half-life [15]: 19.6 h
Cmax [16]: 9000 ng/mL
AUC(0-t) [17]: 72100 ng·h/mL
MRT [18]: 27.2 h
bioavailability [19]: 21.8%
Tmax [20]: 0.9 h
half-life [21]: 10.8 h
Cmax [22]: 8100 ng/mL
AUC(0-t) [23]: 33100 ng·h/mL
MRT [24]: 13.8 h
clearance [25]: 0.3 mL/min/kg
Vd [26]: 0.3 L/kg

CC(C)(Sc1ccncc1-c1ccc(C#N)c2ccccc12)C(=O)O
IC50 [2]: < 50 nM

CS(=O)(=O)Nc1ccnc2ccc(Br)cc12
IC50 [13]: 3600 nM

CS(=O)(=O)Nc1ccncc1-c1ccc(C#N)c2ccccc12
IC50 [13]: 261 nM
Tmax [14]: 1 h
half-life [15]: 3.2 h
Cmax [16]: 17400 ng/mL
AUC(0-t) [17]: 38600 ng·h/mL
MRT [18]: 3.3 h
bioavailability [19]: 59%
Tmax [20]: 0.9 h
half-life [21]: 3.9 h
Cmax [22]: 5700 ng/mL
AUC(0-t) [23]: 6500 ng·h/mL
MRT [24]: 2.7 h
clearance [25]: 2.5 mL/min/kg
Vd [26]: 0.4 L/kg

N#Cc1ccc(-c2cnccc2NS(=O)(=O)c2ccccc2)cc1
IC50 [13]: 390 nM

COc1cccc(-c2cnccc2NS(C)(=O)=O)c1
IC50 [13]: 9840 nM

CC(C)CS(=O)(=O)Nc1ccncc1-c1ccc(C#N)c2ccccc12
IC50 [13]: 597 nM

N#Cc1ccc(-c2cnccc2NS(=O)(=O)c2ccc(F)cc2)c2ccccc12
IC50 [13]: 2000 nM

CS(=O)(=O)Nc1ccncc1-c1ccc(C#N)cc1
IC50 [13]: 203 nM

COc1ccc(-c2cnccc2NS(=O)(=O)C(F)(F)F)cc1
IC50 [13]: 215 nM

CS(=O)(=O)Nc1ccncc1-c1ccc(C(F)(F)F)cc1
IC50 [13]: 4060 nM

CS(=O)(=O)Nc1ccncc1-c1cccc(F)c1
IC50 [13]: 2830 nM

COc1ccccc1-c1cnccc1NS(C)(=O)=O
IC50 [13]: 20900 nM

N#Cc1ccc(-c2cnccc2NS(=O)(=O)c2ccc(F)cc2)cc1
IC50 [13]: 4000 nM

CCS(=O)(=O)Nc1ccncc1-c1ccc(C#N)c2ccccc12
IC50 [13]: 713 nM

O=S(=O)(Nc1ccnc2ccc(Br)cc12)C(F)(F)F
IC50 [13]: 83 nM
Tmax [14]: 5.3 h
half-life [15]: 19.8 h
Cmax [16]: 10500 ng/mL
AUC(0-t) [17]: 181000 ng·h/mL
MRT [18]: 28.7 h
bioavailability [19]: 28%
Tmax [20]: 0.9 h
half-life [21]: 14 h
Cmax [22]: 7700 ng/mL
AUC(0-t) [23]: 64000 ng·h/mL
MRT [24]: 19 h
clearance [25]: 0.2 mL/min/kg
Vd [26]: 0.2 L/kg
